This experiment concerns HRV14. Kind of experiment: Inhibitory activity against human rhinovirus infection and replication (quantitative real-time PCR). It counts as cell-based. The conditions noted are these: Human rhinovirus sp., MRC5; 100 nmol/L test compound; MRC-5 cells infected with HRV14 at MOI=0.2; 48 hours; viral load normalized to 18s rRNA; read-out: Percent Inhibition. On the procedure: Evaluation of inhibitory activity against human rhinovirus infection and replication (by quantitative real-time PCR)
A required amount of a test compound was weighed off and dissolved in dimethyl sulfoxide (DMSO) to yield a 10 mmol/L stock solution. Next, the stock solution was diluted with a medium for viral infection (minimum essential medium (MEM) supplemented with 2% fetal bovine serum, 5% Tryptose phosphate broth, and 30 mmol/L MgCl2) to prepare 100 nmol/L and 1000 nmol/L of test compound solutions. MRC-5 (human fetal lung fibroblast: ATCC) was suspended at a density of 30000 cells/mL in cell culture medium (MEM supplemented with 10% fetal bovine serum), and 625 μL of the suspension per well was seeded into a 24-well cell culture plate and cultured at 37° C. in 5% CO2. After 72 hours, it was confirmed that the plate had become 80% confluent. The plate was washed with 625 μL of phosphate-buffered physiological saline (Ca/Mg-free; PBS-) once, and 625 μL of the test compound solution prepared just before use was immediately added to the plate. After 30 minutes, the medium was removed followed by addition of 187.5 μL of the test compound solution that had been prepared such that the cells were infected with HRV14 (ATCC) at multiplicity of infection (MOI)=0.2. The cells were then cultured at 35° C. in 5% CO2. After additional 2 hours, 625 μL of the test compound solution prepared just before use was added, and the cells were cultured at 35° C. in 5% CO2. After 48 hours, the cells were washed with 625 μL of PBS- once, and total RNA was extracted from the cells using RNeasy (R) plus kit (Qiagen) according to the manufacturer's instruction. Subsequently, cDNA was synthesized using High-Capacity cDNA Reverse Transcription Kit (Thermo Fisher Scientific). Finally, quantitative real-time PCR was performed in 7500 Fast Real-time PCR system (Life technologies) to measure HRV14 and 18s rRNA. The measurement protocol consisted of the initial denaturation phase at 95° C. for 20 seconds followed by 40 cycles of the denaturation step at 95° C. for 3 seconds and the annealing/elongation step at 60° C. for 30 seconds. The primers used were HRV14 forward primer set forth in SEQ ID NO: 1 and HRV14 reverse primer set forth in SEQ ID NO: 2, and the probe is set forth in SEQ ID NO: 3.
18s rRNA was measured using Eukaryotic 18S rRNA Endogenous Control (Applied Biosystems). According to Equation 1, 18s ribosomal RNA was used as an internal standard to normalize the viral load of HRV14: Viral load of HRV14=The amount of HRV14 in virus-infected cells/the amount of 18s rRNA in virus-infected cells Equation 1
Inhibitory activity of test compounds was calculated as a percent inhibition (%) according to Equation 2: Percent inhibition (%)=[the viral load of HRV in virus-infected cells in the absence of the test compound −the viral load of HRV in virus-infected cells in the presence of the test compound]/[the viral load of HRV in virus-infected cells in the absence of the test compound]×100 Equation 2
The results of using 100 nmol/L test compound solutions were shown in the tables below according to Examples. In the tables, percent inhibition was expressed as follows: percent inhibition >80%: +++, 80%≥percent inhibition >50%: ++, and 50%≥percent inhibition:+.
In general terms: Quantitative PCR measures a nucleic acid by following its amplification.

Turning to `COc1ccc(-c2c(C)nc3sc(C(C)(C)O)nn23)cc1S(=O)(=O)C1(CO)CC1` [Example 4-4], the inhibition at 0.1 µM lay within 50 to 80%.

`Cc1nc2sc(C(C)(C)O)nn2c1-c1ccc(C(F)(F)F)c(S(=O)(=O)N[C@]2(C)C[C@@H](O)C2)c1` [Example 2-18]: the inhibition at 0.1 µM is more than 80%.

Turning to `COc1ccc(-c2c(C)nc3sc(C(O)(C4CC4)C4CC4)nn23)cc1S(=O)(=O)CC(C)(C)O` [Example 1-53], the inhibition at 0.1 µM is more than 80%.

For the molecule `[2H]C([2H])([2H])Oc1ccc(-c2c(C)nc3sc(C4CC4)nn23)cc1S(=O)(=O)NC(C)(C)CO` [Example 2-90], the inhibition at 0.1 µM is more than 80%.

As for `COc1ccc(-c2c(C)nc3sc(C(C)(C)O)nn23)cc1S(=O)(=O)Cc1ccc(C#N)cc1` [Example 2-93], the inhibition at 0.1 µM is 50 to 80%.

As for `CC(=O)N1CC(S(=O)(=O)c2cc(-c3c(C)nc4sc(C(C)(C)O)nn34)ccc2C(F)(F)F)C1` [Example 10-1], the inhibition at 0.1 µM was more than 80%.

Regarding `COc1ccc(-c2c(C)nc3sc(C(C)(C)O)nn23)cc1S(=O)(=O)C(C)(C)CO` [Example 4-1], the inhibition at 0.1 µM was more than 80%.

In the case of `COc1ccc(-c2c(C)nc3sc(C(C)(C)O)nn23)cc1S(=O)(=O)[C@H]1C[C@@](C)(C(C)(C)O)C1` [Example 2-74], the inhibition at 0.1 µM was not above 50%.

Turning to `COc1ccc(-c2c(C)nc3sc(C(C)(C)O)nn23)cc1S(C)(=O)=O` [Example 2-13], the inhibition at 0.1 µM was not above 50%.

Consider `COc1ccc(-c2c(C)nc3sc(C(C)(C)O)nn23)cc1S(=O)(=O)Cc1ccncc1` [Example 2-95], for which the inhibition at 0.1 µM lay within 50 to 80%.

For the molecule `Cc1nc2sc(C(C)(C)O)nn2c1-c1ccc(C(F)(F)F)c(S(=O)(=O)C(C)(C)C(=O)O)c1` [Example 5], the inhibition at 0.1 µM is not above 50%.

As to `COc1ccc(-c2c(C)nc3sc(C4(C(F)(F)F)CC4)nn23)cc1S(=O)(=O)N[C@H]1CC[C@@H](O)CC1` [Example 1-31], the inhibition at 0.1 µM is more than 80%.

With `Cc1nc2sc(C(C)(C)O)nn2c1-c1ccc(CO)c(S(=O)(=O)CC(C)(C)O)c1` [Example 17], the inhibition at 0.1 µM was not above 50%.

For the molecule `Cc1nc2sc(C3CC3)nn2c1-c1ccc(C(F)(F)F)c(S(=O)(=O)CCO)c1` [Example 2-15], the inhibition at 0.1 µM is 50 to 80%.

Regarding `Cc1nc2sc(C(O)(C(F)(F)F)C(F)(F)F)cn2c1-c1ccc(Cl)c(S(=O)(=O)N[C@H]2CC[C@@H](O)CC2)c1` [Example 1-11], the inhibition at 0.1 µM was not above 50%.

On to `Cc1nc2sc(C(C)(C)O)nn2c1-c1cnc(C(F)(F)F)c(S(=O)(=O)N[C@H]2CC[C@H](O)CC2)c1` [Example 2-11], for which the inhibition at 0.1 µM was not above 50%.

Consider `COc1ccc(-c2c(C)nc3sc(C(C)(C)O)nn23)cc1S(=O)(=O)NC1(C)CCC(O)CC1` (stereo not drawn) [Example 21-14], for which the inhibition at 0.1 µM is more than 80%.

In the case of `COc1ccc(-c2c(C)nc3sc(C(C)(C)O)nn23)cc1S(=O)(=O)Cc1ccccc1` [Example 2-91], the inhibition at 0.1 µM is more than 80%.

Consider `COc1ncc(-c2c(C)nc3sc(C(C)(C)O)nn23)cc1S(=O)(=O)N[C@H]1CC[C@@H](O)CC1` [Example 1-21], for which the inhibition at 0.1 µM was not above 50%.

As for `[2H]C([2H])([2H])C(O)(CS(=O)(=O)c1cc(-c2c(C)nc3sc(C(C)(C)O)nn23)ccc1C(F)(F)F)C([2H])([2H])[2H]` [Example 2-97], the inhibition at 0.1 µM is more than 80%.

Consider `COc1ccc(-c2c(C)nc3sc(C4(O)CCCC4)cn23)cc1S(=O)(=O)N[C@H]1CC[C@@H](O)CC1` [Example 1-44], for which the inhibition at 0.1 µM is not above 50%.

On to `COc1ccc(-c2c(C)nc3sc(C(C)(C)O)nn23)cc1S(=O)(=O)C1CN(S(C)(=O)=O)C1` [Example 9-2], for which the inhibition at 0.1 µM lay within 50 to 80%.

With `COc1ccc(-c2c(C)nc3sc(C(C)(C)O)nn23)cc1S(=O)(=O)N[C@H]1CC[C@H](O)CC1` [Example 1-1], the inhibition at 0.1 µM lay within 50 to 80%.

For the molecule `Cc1nc2sc(C(C)(C)O)nn2c1-c1ccc(OC(F)(F)F)c(S(=O)(=O)N[C@H]2CC[C@H](O)CC2)c1` [Example 2-7], the inhibition at 0.1 µM is more than 80%.

On to `COc1ccc(-c2c(C)nc3sc(C(C)(C)O)nn23)cc1S(=O)(=O)C1CC(F)(F)C1` [Example 2-69], for which the inhibition at 0.1 µM lay within 50 to 80%.

Regarding `COC(=O)C(C)(C)c1nn2c(-c3cnc(OC)c(S(=O)(=O)N[C@H]4CC[C@@H](O)CC4)c3)c(C)nc2s1` [Example 1-23], the inhibition at 0.1 µM was more than 80%.

For `COc1ccc(-c2c(C)nc3sc(C(C)(C)O)nn23)cc1S(=O)(=O)CC1(C)COC1` [Example 2-41], the inhibition at 0.1 µM fell in the range of 50 to 80%.

In the case of `COc1ccc(-c2c(C)nc3sc(C(C)(C)O)nn23)cc1S(=O)(=O)[C@@H]1CC[C@@H](O)C1` [Example 2-62], the inhibition at 0.1 µM was not above 50%.

With `Cc1nc2sc(C(C)(C)O)nn2c1-c1ccc(C(F)(F)F)c(S(=O)(=O)C(C)(C)C(N)=O)c1` [Example 6-2], the inhibition at 0.1 µM is not above 50%.

Turning to `Cc1nc2sc(C(O)(C3CC3)C3CC3)nn2c1-c1ccc(C(F)(F)F)c(S(=O)(=O)CC(C)(C)O)c1` [Example 2-87], the inhibition at 0.1 µM is more than 80%.

On to `COc1ccc(-c2c(C)nc3sc(C(C)(C)O)cn23)cc1S(=O)(=O)Nc1cccc(O)c1` [Example 2-80], for which the inhibition at 0.1 µM was not above 50%.

In the case of `COc1ccc(-c2c(C)nc3sc(C(C)(C)O)nn23)cc1S(=O)(=O)Nc1ccc(C(C)(C)O)cc1` [Example 3-3], the inhibition at 0.1 µM is not above 50%.

For the molecule `COc1ccc(-c2c(C)nc3sc(C(C)(C)O)nn23)cc1S(=O)(=O)[C@H]1C[C@](C)(C(C)(C)O)C1` [Example 2-73], the inhibition at 0.1 µM is more than 80%.

Regarding `COc1ccc(-c2c(C)nc3sc(C(C)(C)O)cn23)cc1S(=O)(=O)CC(C)(C)O` [Example 1-42], the inhibition at 0.1 µM is not above 50%.

On to `Cc1nc2sc(C(C)(C)O)nn2c1-c1ccc(C(F)(F)F)c(S(=O)(=O)[C@H]2C[C@@H](O)C2)c1` [Example 2-46], for which the inhibition at 0.1 µM was more than 80%.

On to `Cc1nc2sc(C(C)(C)O)nn2c1-c1ccc(C(F)(F)F)c(S(=O)(=O)C2CN(CCO)C2)c1` [Example 12-2], for which the inhibition at 0.1 µM fell in the range of 50 to 80%.

`COc1ccc(-c2c(C)nc3sc(C4(C#N)CC4)nn23)cc1S(=O)(=O)NC(C)(C)CO` [Example 1-39]: the inhibition at 0.1 µM was not above 50%.

As for `Cc1nc2sc(C(C)(C)O)nn2c1-c1ccc(C(F)(F)F)c(S(=O)(=O)NC2(CO)COC2)c1` [Example 2-31], the inhibition at 0.1 µM was more than 80%.

Consider `Cc1nc2sc(C(C)(C)O)nn2c1-c1ccc(C(F)(F)F)c(S(=O)(=O)NC2(CO)CC2)c1` [Example 2-20], for which the inhibition at 0.1 µM is more than 80%.

Regarding `Cc1nc2sc(C(C)(C)O)nn2c1-c1ccc(C(F)(F)F)c(S(=O)(=O)CC2CC(O)C2)c1` (stereo not drawn) [Example 2-23], the inhibition at 0.1 µM is 50 to 80%.

For `Cc1nc2sc(C(C)(C)O)nn2c1-c1ccc(C(F)(F)F)c(S(=O)(=O)C2CC(F)(F)C2)c1` [Example 2-44], the inhibition at 0.1 µM is more than 80%.

As for `COc1ccc(-c2c(C)nc3sc(C(C)(C)O)nn23)cc1S(=O)(=O)[C@H]1C[C@](C)(O)C1` [Example 2-76], the inhibition at 0.1 µM was more than 80%.

In the case of `COc1ccc(-c2c(C)nc3sc(C(C)(C)O)nn23)cc1S(=O)(=O)[C@H]1C[C@@H](C(C)(C)O)C1` [Example 2-71], the inhibition at 0.1 µM was more than 80%.

Turning to `COc1ccc(-c2c(C)nc3sc(C4(OC)CCCC4)cn23)cc1S(=O)(=O)N[C@H]1CC[C@@H](O)CC1` [Example 1-45], the inhibition at 0.1 µM was more than 80%.

On to `COc1ccc(NS(=O)(=O)c2cc(-c3c(C)nc4sc(C(C)(C)O)cn34)ccc2OC)cc1` [Example 2-79], for which the inhibition at 0.1 µM was 50 to 80%.

As to `COc1ccc(-c2c(C)nc3sc(C(C)(C)O)nn23)cc1S(=O)(=O)[C@H]1CC[C@](C)(O)CC1` [Example 15-2], the inhibition at 0.1 µM lay within 50 to 80%.

As for `COc1ccc(-c2c(C)nc3sc(C(C)(C)CO)nn23)cc1S(=O)(=O)N[C@H]1CC[C@@H](O)CC1` [Example 20-1], the inhibition at 0.1 µM was more than 80%.

Regarding `COc1ccc(-c2c(C)nc3sc(C(C)(C)O)nn23)cc1S(=O)(=O)NCC1COC1` [Example 21-4], the inhibition at 0.1 µM is 50 to 80%.

The inhibition is the drop in the measured response relative to a control, in per cent.

These data come from patent publication US11952387B2, “Bicyclic heteroaromatic ring derivative” (priority 2018, dated 2024).
